Test results: ChEMBL document CHEMBL3112480, “γ-Alkylidene-γ-lactones and isobutylpyrrol-2(5H)-ones analogues to rubrolides as inhibitors of biofilm formation by gram-positive and gram-negative bacteria” (Bioorg Med Chem Lett, 2014)
≈ marks a conversion by molar mass, not a printed value.

What was measured:
[1] = tested on: Staphylococcus aureus; test: Antibacterial activity against Staphylococcus aureus ATCC 25923 assessed as effect on planktonic growth at 5.5 ug/ml after 20 hrs relative to control; format: functional
[2] = tested on: Staphylococcus aureus; test: Antibacterial activity against Staphylococcus aureus ATCC 25923 assessed as effect on planktonic growth at 0.34 ug/ml after 20 hrs relative to control; format: functional
[3] = tested on: Pseudomonas aeruginosa; test: Antibacterial activity against Pseudomonas aeruginosa ATCC 27853 assessed as effect on planktonic growth at 10.9 ug/ml after 20 hrs relative to control; format: functional
[4] = tested on: Pseudomonas aeruginosa; test: Antibacterial activity against Pseudomonas aeruginosa ATCC 27853 assessed as effect on planktonic growth at 0.34 ug/ml after 20 hrs relative to control; format: functional
[5] = tested on: Pseudomonas aeruginosa; test: Antibacterial activity against Pseudomonas aeruginosa ATCC 27853 assessed as effect on planktonic growth at 87.5 ug/ml after 20 hrs relative to control; format: functional
[6] = tested on: Staphylococcus aureus; test: Antibacterial activity against Staphylococcus aureus ATCC 25923 assessed as effect on planktonic growth at 21.9 ug/ml after 20 hrs relative to control; format: functional
[7] = tested on: Streptococcus mutans; test: Antibacterial activity against Streptococcus mutans ATCC 25175 assessed as effect on planktonic growth at 0.68 ug/ml after 20 hrs relative to control; format: functional
[8] = tested on: Staphylococcus epidermidis; test: Antibacterial activity against Staphylococcus epidermidis ATCC 35547 assessed as effect on planktonic growth at 0.17 ug/ml after 20 hrs relative to control; format: functional
[9] = tested on: Staphylococcus epidermidis; test: Antibacterial activity against Staphylococcus epidermidis ATCC 35547 assessed as effect on planktonic growth at 43.8 ug/ml after 20 hrs relative to control; format: functional
[10] = tested on: Staphylococcus epidermidis; test: Antibacterial activity against Staphylococcus epidermidis ATCC 35547 assessed as effect on planktonic growth at 87.5 ug/ml after 20 hrs relative to control; format: functional
[11] = tested on: Pseudomonas aeruginosa; test: Antibacterial activity against Pseudomonas aeruginosa ATCC 27853 assessed as effect on planktonic growth at 1.37 ug/ml after 20 hrs relative to control; format: functional
[12] = tested on: Staphylococcus aureus; test: Antibacterial activity against Staphylococcus aureus ATCC 25923 assessed as effect on planktonic growth at 0.17 ug/ml after 20 hrs relative to control; format: functional
[13] = tested on: Staphylococcus epidermidis; test: Antibacterial activity against Staphylococcus epidermidis ATCC 35547 assessed as inhibition of biofilm formation after 20 hrs by crystal-violet staining method; format: functional, organism-based
[14] = tested on: Staphylococcus epidermidis; test: Induction of biofilm formation in Staphylococcus epidermidis ATCC 35547 at 87.5 ug/ml after 20 hrs by crystal-violet staining method relative to control; format: organism-based
[15] = tested on: Pseudomonas aeruginosa; test: Antibacterial activity against Pseudomonas aeruginosa ATCC 27853 assessed as inhibition of biofilm formation after 20 hrs by crystal-violet staining method; format: functional, organism-based; settings: for IC50: ATCC 27853, 20 h
[16] = tested on: Staphylococcus aureus; test: Antibacterial activity against Staphylococcus aureus ATCC 25923 assessed as effect on planktonic growth at 87.5 ug/ml after 20 hrs relative to control; format: functional
[17] = tested on: Staphylococcus aureus; test: Antibacterial activity against Staphylococcus aureus ATCC 25923 assessed as effect on planktonic growth at 10.9 ug/ml after 20 hrs relative to control; format: functional
[18] = tested on: Streptococcus mutans; test: Antibacterial activity against Streptococcus mutans ATCC 25175 assessed as effect on planktonic growth at 2.73 ug/ml after 20 hrs relative to control; format: functional
[19] = tested on: Streptococcus mutans; test: Antibacterial activity against Streptococcus mutans ATCC 25175 assessed as effect on planktonic growth at 0.34 ug/ml after 20 hrs relative to control; format: functional
[20] = tested on: Streptococcus mutans; test: Antibacterial activity against Streptococcus mutans ATCC 25175 assessed as effect on planktonic growth at 87.5 ug/ml after 20 hrs relative to control; format: functional
[21] = tested on: Pseudomonas aeruginosa; test: Antibacterial activity against Pseudomonas aeruginosa ATCC 27853 assessed as effect on planktonic growth at 43.8 ug/ml after 20 hrs relative to control; format: functional
[22] = tested on: Streptococcus mutans; test: Antibacterial activity against Streptococcus mutans ATCC 25175 assessed as effect on planktonic growth at 5.5 ug/ml after 20 hrs relative to control; format: functional
[23] = tested on: Pseudomonas aeruginosa; test: Antibacterial activity against Pseudomonas aeruginosa ATCC 27853 assessed as effect on planktonic growth at 2.73 ug/ml after 20 hrs relative to control; format: functional
[24] = tested on: Pseudomonas aeruginosa; test: Antibacterial activity against Pseudomonas aeruginosa ATCC 27853 assessed as effect on planktonic growth at 5.5 ug/ml after 20 hrs relative to control; format: functional
[25] = tested on: Streptococcus mutans; test: Antibacterial activity against Streptococcus mutans ATCC 25175 assessed as effect on planktonic growth at 43.8 ug/ml after 20 hrs relative to control; format: functional
[26] = tested on: Staphylococcus epidermidis; test: Antibacterial activity against Staphylococcus epidermidis ATCC 35547 assessed as effect on planktonic growth at 10.9 ug/ml after 20 hrs relative to control; format: functional
[27] = tested on: Staphylococcus epidermidis; test: Antibacterial activity against Staphylococcus epidermidis ATCC 35547 assessed as effect on planktonic growth at 0.34 ug/ml after 20 hrs relative to control; format: functional
[28] = tested on: Streptococcus mutans; test: Antibacterial activity against Streptococcus mutans ATCC 25175 assessed as effect on planktonic growth at 10.9 ug/ml after 20 hrs relative to control; format: functional
[29] = tested on: Streptococcus mutans; test: Antibacterial activity against Streptococcus mutans ATCC 25175 assessed as effect on planktonic growth at 0.17 ug/ml after 20 hrs relative to control; format: functional
[30] = tested on: Staphylococcus epidermidis; test: Antibacterial activity against Staphylococcus epidermidis ATCC 35547 assessed as effect on planktonic growth at 0.68 ug/ml after 20 hrs relative to control; format: functional
[31] = tested on: Streptococcus mutans; test: Antibacterial activity against Streptococcus mutans ATCC 25175 assessed as effect on planktonic growth at 21.9 ug/ml after 20 hrs relative to control; format: functional
[32] = tested on: Streptococcus mutans; test: Antibacterial activity against Streptococcus mutans ATCC 25175 assessed as effect on planktonic growth at 1.37 ug/ml after 20 hrs relative to control; format: functional
[33] = tested on: Pseudomonas aeruginosa; test: Antibacterial activity against Pseudomonas aeruginosa ATCC 27853 assessed as effect on planktonic growth at 21.9 ug/ml after 20 hrs relative to control; format: functional
[34] = tested on: Staphylococcus epidermidis; test: Antibacterial activity against Staphylococcus epidermidis ATCC 35547 assessed as effect on planktonic growth at 1.37 ug/ml after 20 hrs relative to control; format: functional
[35] = tested on: Pseudomonas aeruginosa; test: Antibacterial activity against Pseudomonas aeruginosa ATCC 27853 assessed as effect on planktonic growth at 0.17 ug/ml after 20 hrs relative to control; format: functional
[36] = tested on: Staphylococcus epidermidis; test: Antibacterial activity against Staphylococcus epidermidis ATCC 35547 assessed as effect on planktonic growth at 21.9 ug/ml after 20 hrs relative to control; format: functional
[37] = tested on: Staphylococcus aureus; test: Antibacterial activity against Staphylococcus aureus ATCC 25923 assessed as effect on planktonic growth at 0.68 ug/ml after 20 hrs relative to control; format: functional
[38] = tested on: Staphylococcus aureus; test: Antibacterial activity against Staphylococcus aureus ATCC 25923 assessed as effect on planktonic growth at 1.37 ug/ml after 20 hrs relative to control; format: functional
[39] = tested on: Staphylococcus epidermidis; test: Antibacterial activity against Staphylococcus epidermidis ATCC 35547 assessed as effect on planktonic growth at 5.5 ug/ml after 20 hrs relative to control; format: functional
[40] = tested on: Staphylococcus epidermidis; test: Antibacterial activity against Staphylococcus epidermidis ATCC 35547 assessed as effect on planktonic growth at 2.73 ug/ml after 20 hrs relative to control; format: functional
[41] = tested on: Pseudomonas aeruginosa; test: Antibacterial activity against Pseudomonas aeruginosa ATCC 27853 assessed as effect on planktonic growth at 0.68 ug/ml after 20 hrs relative to control; format: functional
[42] = tested on: Staphylococcus aureus; test: Antibacterial activity against Staphylococcus aureus ATCC 25923 assessed as effect on planktonic growth at 43.8 ug/ml after 20 hrs relative to control; format: functional
[43] = tested on: Staphylococcus aureus; test: Antibacterial activity against Staphylococcus aureus ATCC 25923 assessed as effect on planktonic growth at 2.73 ug/ml after 20 hrs relative to control; format: functional
[44] = tested on: Staphylococcus aureus; test: Antibacterial activity against Staphylococcus aureus ATCC 25923 assessed as inhibition of biofilm formation at 44 ug/ml after 20 hrs by crystal-violet staining method relative to control; format: functional; settings: ATCC 25923, 20 h

Compound: COc1cccc(CC2(O)C(c3cc(Cl)ccc3OC)=C(Br)C(=O)N2CC(C)C)c1 (centres undefined)
- Activity [1]: -8.1%
- Activity [2]: 0.7%
- Activity [3]: -3.3%
- Activity [4]: -5.8%
- Activity [5]: -3.6%
- Activity [6]: -15.1%
- Activity [7]: -12.5%
- Activity [8]: 10%
- Activity [9]: 15.7%
- Activity [10]: 14.5%
- Activity [11]: -4.2%
- Activity [12]: 2%
- inhibition [13]: Dose-dependent effect
- Activity [14]: 46.9%
- inhibition [15]: Dose-dependent effect
- IC50 [15]: 2.2 µg/mL (≈ 4.45 µM)
- Activity [16]: 22.1%
- Activity [17]: -9.9%
- Activity [18]: 0.3%
- Activity [19]: -12.5%
- Activity [20]: 9%
- Activity [21]: -2.3%
- Activity [22]: 1.6%
- Activity [23]: -18.9%
- Activity [24]: -5.5%
- Activity [25]: 6.5%
- Activity [26]: -0.3%
- Activity [27]: 3.3%
- Activity [28]: -3.7%
- Activity [29]: -14%
- Activity [30]: 5.1%
- Activity [31]: -0.6%
- Activity [32]: -8.7%
- Activity [33]: -3.7%
- Activity [34]: 4.7%
- Activity [35]: -4%
- Activity [36]: 6.9%
- Activity [37]: -5%
- Activity [38]: 6.8%
- Activity [39]: 6.4%
- Activity [40]: 3.4%
- Activity [41]: -6.7%
- Activity [42]: 0.7%
- Activity [43]: 2.3%

Compound: COc1ccc(C)cc1C1=C(Br)C(=O)N(CC(C)C)/C1=C/c1ccccc1Cl
- Activity [1]: -9.4%
- Activity [2]: -6.6%
- Activity [3]: -15%
- Activity [4]: 0.6%
- Activity [5]: -4.3%
- Activity [6]: -13.2%
- Activity [7]: 9%
- Activity [8]: -2.9%
- Activity [9]: 26.9%
- Activity [10]: 23.5%
- Activity [11]: -10%
- Activity [12]: -6.6%
- inhibition [13]: Dose-dependent effect
- IC50 ([13]; ATCC 35547, 20 h): > 87.5 µg/mL
- inhibition [15]: Dose-dependent effect
- IC50 [15]: 1.4 µg/mL (≈ 3.04 µM)
- Activity [16]: 20.1%
- Activity [17]: -11.2%
- Activity [18]: 24.3%
- Activity [19]: 18.1%
- Activity [20]: 20.1%
- Activity [21]: -7.7%
- Activity [22]: 25.4%
- Activity [23]: -18.8%
- Activity [24]: -17.8%
- Activity [25]: 20.1%
- inhibition at 44 µg/mL [44]: 34%
- Activity [26]: 6%
- Activity [27]: 3.6%
- Activity [28]: 18.6%
- Activity [29]: 11.9%
- Activity [30]: -6.1%
- Activity [31]: 13.8%
- Activity [32]: 20.6%
- Activity [33]: -13.2%
- Activity [34]: -2.3%
- Activity [35]: 1.2%
- Activity [36]: 5.9%
- Activity [37]: -3.6%
- Activity [38]: -4.6%
- Activity [39]: -1%
- Activity [40]: 0.4%
- Activity [41]: -2.7%
- Activity [42]: 4.6%
- Activity [43]: -10.4%
